Assay results taken from US12458021B2, “Microbiocidal derivatives” (SYNGENTA CROP PROTECTION AG, priority 2019, dated 2025).

Tests used:
Pyrenophora teres = Pyrenophora teres / barley / leaf disc preventative (net blotch); type: in vivo; settings: foliar, barley leaf segments cv. Hasso, inoculated 2 days after application, assessed 5-7 days after application, read-out: control of Pyrenophora teres (disease control compared to untreated)
Procedure: Example B13: Pyrenophora teres/Barley/Leaf Disc Preventative (Net Blotch) Barley leaf segments cv. Hasso are placed on agar in a multiwell plate (24-well format) and sprayed with the formulated test compound diluted in water. The leaf segments are inoculated with a spore suspension of the fungus 2 days after application. The inoculated leaf segments are incubated at 20° C. and 65% rh under a light regime of 12 h light/12 h darkness in a climate cabinet and the activity of a compound is assessed as disease control compared to untreated when an appropriate level of disease damage appears in untreated check leaf segments (5-7 days after application). […] […]-185.

[1] = tested on: Blumeria graminis f. sp. tritici (Erysiphe graminis f. sp. tritici); assay: Blumeria graminis f. sp. tritici / wheat / leaf disc preventative (powdery mildew on wheat); type: in vivo; settings: foliar, wheat leaf segments cv. Kanzler, inoculated 1 day after application, assessed 6-8 days after application, read-out: control of Blumeria graminis f. sp. tritici (percent disease control compared to untreated)
Excerpt: Example B4: Blumeria graminis f. sp. tritici (Erysiphe graminis f. sp. tritici)/Wheat/Leaf Disc Preventative (Powdery Mildew on Wheat) Wheat leaf segments cv. Kanzler are placed on agar in a multiwell plate (24-well format) and sprayed with the formulated test compound diluted in water. The leaf disks are inoculated by shaking powdery mildew infected plants above the test plates 1 day after application. […] […]-192.

[2] = tested on: Magnaporthe grisea (Pyricularia oryzae); assay: whole plant or invertebrate; type: in vivo; settings: foliar, read-out: control of Magnaporthe grisea (percent disease control compared to untreated)
Alternaria solani = Alternaria solani / tomato / leaf disc (early blight); type: in vivo; settings: foliar, tomato leaf disks cv. Baby, inoculated 2 days after application, assessed 5-7 days after application, read-out: control of Alternaria solani (percent disease control compared to untreated)
Procedure: Example B1: Alternaria solani/Tomato/Leaf Disc (Early Blight) Tomato leaf disks cv. Baby are placed on agar in multiwell plates (24-well format) and sprayed with the formulated test compound diluted in water. The leaf disks are inoculated with a spore suspension of the fungus 2 days after application. The inoculated leaf disks are incubated at 23° C./21° C. […] […]-185.

[3] = tested on: Mycosphaerella graminicola (Septoria tritici); assay: Mycosphaerella graminicola (Septoria tritici) / liquid culture (Septoria blotch); type: cell-based; settings: Zymoseptoria tritici, PDB potato dextrose broth, 24° C., 4-5 days after application, read-out: control of Mycosphaerella graminicola (inhibition of growth, photometric)
In short: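 Fungal growth inhibition was read photometrically 4-5 days after application. Compound was dosed from a DMSO solution into liquid cultures of spores in potato dextrose broth, incubated at 24° C.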

[4] = tested on: Glomerella lagenarium (Colletotrichum lagenarium); assay: Glomerella lagenarium (Colletotrichum lagenarium) / liquid culture (anthracnose); type: cell-based; settings: Colletotrichum orbiculare, PDB potato dextrose broth, 24° C., 3-4 days after application, read-out: control of Glomerella lagenarium (inhibition of growth, photometric)
In short: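 Fungal growth inhibition measured photometrically 3-4 days post-application at 24° C. Spores were mixed directly into potato dextrose broth and dispensed onto test compound supplied in DMSO.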

[5] = tested on: Puccinia recondita f. sp. tritici; assay: Puccinia recondita f. sp. tritici / wheat / leaf disc preventative (brown rust); type: in vivo; settings: foliar, wheat leaf segments cv. Kanzler, inoculated 1 day after application, assessed 7-9 days after application, read-out: control of Puccinia recondita f. sp. tritici, preventative (percent disease control compared to untreated)
Procedure: Example B11: Puccinia recondita f. sp. tritici/Wheat/Leaf Disc Preventative (Brown Rust) Wheat leaf segments cv. Kanzler are placed on agar in multiwell plates (24-well format) and sprayed with the formulated test compound diluted in water. The leaf disks are inoculated with a spore suspension of the fungus 1 day after application. The inoculated leaf segments are incubated at 19° C. and 75% rh under a light regime of 12 h light/12 h darkness in a climate cabinet and the activity of a compound is assessed as percent disease control compared to untreated when an appropriate level of disease damage appears in untreated check leaf segments (7-9 days after application). […] […]-190.

[6] = tested on: Monographella nivalis (Microdochium nivale); assay: Monographella nivalis (Microdochium nivale) / liquid culture (foot rot cereals); type: cell-based; settings: PDB potato dextrose broth, 24° C., 4-5 days after application, read-out: control of Monographella nivalis (inhibition of growth, photometric)
In short: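 Growth inhibition measured by photometry 4-5 days post-application at 24° C. Compound was dispensed as DMSO solution, then PDB broth containing conidia from cryogenic storage was added.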

COc1ccc(Nc2cc(F)nc(F)c2)nc1C(=O)NC1CCC12CCCC2 (stereo not shown) [Compound P-6, 6-[(2,6-difluoro-4-pyridyl)amino]-3-methoxy-N-spiro[3.4]octan-3-yl-pyridine-2-carboxamide]
≥ 80%: pest or weed control at 200 ppm (Pyrenophora teres) | pest or weed control at 200 ppm [1] | pest or weed control at 200 ppm [2] | pest or weed control at 200 ppm (Alternaria solani) | inhibition at 20 ppm [3] | inhibition at 20 ppm [4] | pest or weed control at 200 ppm [5] | inhibition at 20 ppm [6]

CC(C)Oc1ccc(Nc2cc(F)cc(F)c2)nc1C(=O)NC1CCC1(C)C (stereo not shown) [Compound P-87, 6-(3,5-difluoroanilino)-N-(2,2-dimethylcyclobutyl)-3-isopropoxy-pyridine-2-carboxamide]
≥ 80%: pest or weed control at 200 ppm [2] | pest or weed control at 200 ppm (Alternaria solani) | inhibition at 20 ppm [4] | inhibition at 20 ppm [6]

COc1ccc(Nc2cc(F)cc(F)c2)nc1C(=O)NCC1(C)CCOC1 (stereo not shown) [Compound P-68, 6-(3,5-difluoroanilino)-3-methoxy-N-[(3-methyltetrahydrofuran-3-yl)methyl]pyridine-2-carboxamide]
≥ 80%: pest or weed control at 200 ppm [1] | pest or weed control at 200 ppm [2] | pest or weed control at 200 ppm (Alternaria solani) | inhibition at 20 ppm [3] | inhibition at 20 ppm [4] | inhibition at 20 ppm [6]

COc1ccc(Nc2cc(F)cc(F)c2)nc1C(=O)NCc1c(Cl)cncc1Cl [Compound P-66, N-[(3,5-dichloro-4-pyridyl)methyl]-6-(3,5-difluoroanilino)-3-methoxy-pyridine-2-carboxamide]
≥ 80%: pest or weed control at 200 ppm [2] | pest or weed control at 200 ppm (Alternaria solani) | inhibition at 20 ppm [3] | inhibition at 20 ppm [4] | inhibition at 20 ppm [6]

COc1ccc(Nc2cc(F)cc(F)c2)nc1C(=O)NCC1COc2ccccc21 (stereo not shown) [Compound P-60, 6-(3,5-difluoroanilino)-N-(2,3-dihydrobenzofuran-3-ylmethyl)-3-methoxy-pyridine-2-carboxamide]
≥ 80%: pest or weed control at 200 ppm [2] | pest or weed control at 200 ppm (Alternaria solani) | inhibition at 20 ppm [3] | inhibition at 20 ppm [4] | inhibition at 20 ppm [6]

COc1ccc(Nc2cc(F)nc(F)c2)nc1C(=O)NC1(C)CCCCC1 [Compound P-110, 6-[(2,6-difluoro-4-pyridyl)amino]-3-methoxy-N-(1-methylcyclohexyl)pyridine-2-carboxamide]
≥ 80%: pest or weed control at 200 ppm [1] | pest or weed control at 200 ppm [2] | pest or weed control at 200 ppm (Alternaria solani) | inhibition at 20 ppm [3] | inhibition at 20 ppm [4] | pest or weed control at 200 ppm [5] | inhibition at 20 ppm [6]

COc1ccc(Nc2cnsc2)nc1C(=O)NCC1(C(F)(F)F)CC1 [Compound P-83, 6-(isothiazol-4-ylamino)-3-methoxy-N-[[1-(trifluoromethyl)cyclopropyl]methyl]pyridine-2-carboxamide]
≥ 80%: pest or weed control at 200 ppm [1] | pest or weed control at 200 ppm (Alternaria solani) | inhibition at 20 ppm [3] | inhibition at 20 ppm [4] | inhibition at 20 ppm [6]

COc1ccc(Nc2cc(F)nc(F)c2)nc1C(=O)NCCC(C)C [Compound P-29, 6-[(2,6-difluoro-4-pyridyl)amino]-N-isopentyl-3-methoxy-pyridine-2-carboxamide]
≥ 80%: pest or weed control at 200 ppm (Pyrenophora teres) | pest or weed control at 200 ppm [1] | pest or weed control at 200 ppm [2] | inhibition at 20 ppm [3] | inhibition at 20 ppm [4] | pest or weed control at 200 ppm [5] | inhibition at 20 ppm [6]

COc1ccc(Nc2cc(F)cc(F)c2)nc1C(=O)NC1C2CCOC2C1(C)C (stereo not shown) [Compound P-76, 6-(3,5-difluoroanilino)-N-(7,7-dimethyl-2-oxabicyclo[3.2.0]heptan-6-yl)-3-methoxy-pyridine-2-carboxamide]
≥ 80%: pest or weed control at 200 ppm (Pyrenophora teres) | pest or weed control at 200 ppm [1] | pest or weed control at 200 ppm [2] | pest or weed control at 200 ppm (Alternaria solani) | inhibition at 20 ppm [3] | inhibition at 20 ppm [4] | pest or weed control at 200 ppm [5] | inhibition at 20 ppm [6]

COc1ccc(Nc2cc(F)nc(F)c2)nc1C(=O)NC1(C#N)CCCC1 [Compound P-125, N-(1-cyanocyclopentyl)-6-[(2,6-difluoro-4-pyridyl)amino]-3-methoxy-pyridine-2-carboxamide]
≥ 80%: pest or weed control at 200 ppm [1] | pest or weed control at 200 ppm [2] | pest or weed control at 200 ppm (Alternaria solani) | pest or weed control at 200 ppm [5]

COc1ccc(Nc2cc(F)cc(F)c2)nc1C(=O)NC1COC(C2CC2)C1 (stereo not shown) [Compound P-65, N-(5-cyclopropyltetrahydrofuran-3-yl)-6-(3,5-difluoroanilino)-3-methoxy-pyridine-2-carboxamide]
≥ 80%: pest or weed control at 200 ppm [1] | pest or weed control at 200 ppm [2] | pest or weed control at 200 ppm (Alternaria solani) | inhibition at 20 ppm [3] | inhibition at 20 ppm [4] | inhibition at 20 ppm [6]

COc1ccc(Nc2cc(F)cc(F)c2)nc1C(=O)NC1COC2(CC2)C1 (stereo not shown) [Compound P-70, 6-(3,5-difluoroanilino)-3-methoxy-N-(4-oxaspiro[2.4]heptan-6-yl)pyridine-2-carboxamide]
≥ 80%: pest or weed control at 200 ppm [1] | pest or weed control at 200 ppm [2] | pest or weed control at 200 ppm (Alternaria solani) | inhibition at 20 ppm [3] | inhibition at 20 ppm [4] | pest or weed control at 200 ppm [5] | inhibition at 20 ppm [6]

COc1ccc(Nc2cc(F)cc(F)c2)nc1C(=O)NC1CCS(=O)(=O)CC1 [Compound P-78, 6-(3,5-difluoroanilino)-N-(1,1-dioxothian-4-yl)-3-methoxy-pyridine-2-carboxamide]
≥ 80%: pest or weed control at 200 ppm (Alternaria solani)

COc1ccc(Nc2cc(Cl)cc(Cl)c2)nc1C(=O)NC(C)(C)C [Compound P-148, N-tert-butyl-6-(3,5-dichloroanilino)-3-methoxy-pyridine-2-carboxamide]
≥ 80%: pest or weed control at 200 ppm [2] | pest or weed control at 200 ppm (Alternaria solani) | inhibition at 20 ppm [3] | inhibition at 20 ppm [4] | pest or weed control at 200 ppm [5] | inhibition at 20 ppm [6]

C#CCOc1ccc(Nc2cc(F)cc(F)c2)nc1C(=O)NC1CCC1(C)C (stereo not shown) [Compound P-86, 6-(3,5-difluoroanilino)-N-(2,2-dimethylcyclobutyl)-3-prop-2-ynoxy-pyridine-2-carboxamide]
≥ 80%: pest or weed control at 200 ppm (Alternaria solani) | inhibition at 20 ppm [4] | inhibition at 20 ppm [6]
